{"source": "patent US20240052005A1", "about": "“IMPROVED CELL-PENETRATING PEPTIDES AND FUSION PROTEINS” (ANASTASIS BIOTEC LIMITED, priority 2020, published 2024)", "key": {"[1]": {"test_system": "Human cell-line SKOV3", "experiment": "Cell transduction visualised with FITC-conjugated anti-HIS antibody", "format": "cell-based", "details": "0.01 mg/mL, 1 hour at 37° C.", "experimental": "Human cell-line SKOV3 was cultured in DMEM media with 10% serum at 37° C., 5% CO2 until 40% confluency in a 96-well culture dish. The media was removed and replaced with 0.1 mL tissue culture-grade PBS and unmodified ANTP, unmodified MAML and ANTP-PEG-2-MAML were added to a final concentration of 0.01 mg/mL. Cell transduction was allowed to proceed for 1 hour at 37° C. Next, the PBS was removed and replaced with DMEM/serum and the cells were grown overnight as above. The transduced cells were then fixed using 1% glutaraldehyde at room temperature for 1 hr and permeabilized using Saponin at 1% concentration for 20 minutes at room temperature. Cells were then washed with PBS and visualized using FITC-conjugated-anti-HIS antibody (Miltenyi Biotech). Imaging was done using a GE-Incell-500 analyser visualizing the green fluorescence of the FITC at around 525 nm. […] This confirms the functionality of the ANTP-PEG-2-MAML protein."}, "[2]": {"test_system": "SKOV-3 tumour cells", "experiment": "Intranuclear trafficking into cancer cells, scored by immunofluorescence", "format": "cell-based, human", "details": "free protein alone", "text": "FIG. 2 Intranuclear trafficking of ANTP and ANTP-p21 conjugates into the nuclei of SKOV-3 tumour cells.\nCells, into which the protein had penetrated intranuclearly, were scored positive by immunofluorescence."}}, "note": "“Also recorded” adds a separate entry of the source."}
{"molecule": "ANTP: Antennapedia cell-penetrating peptide, 60 amino acid sequence, recombinant", "values": [{"measurement": "MAML-His protein seen inside the cell cytosol and cell nucleus", "setting": "[1]", "value": "not"}]}
{"molecule": "p21: free tumour-suppressor protein p21", "values": [{"measurement": "cellular uptake / translocation to the nuclei", "setting": "[2]", "value": "No cellular uptake; also recorded: did not translocate to the nuclei"}]}
{"molecule": "MAML: unmodified recombinant MAML protein bearing a HIS-Tag (protein, also: His-tag, place not given here) LPRHSAVMERLRRRIELCRRHHSTCEARYEAVSPERLELERQHTFALHQRCIQAKAKRAGKH", "values": [{"measurement": "MAML-His protein seen inside the cell cytosol and cell nucleus", "setting": "[1]", "value": "not"}]}
